In brackets after ≈: the same amount, converted by molar mass. Where two headings read alike, the source gives them in different places.
How the values were obtained:
TrkA receptor = biological target: T1, TrkA receptor (Homo sapiens, UniProt P04629); test: Phospho-TrkA (Tyr674/675) ELISA: activation of TrkA receptor by NGF in SH-SY5Y cells; format: cell-based; settings: for effect on basal activity in absence of NGF: FIG. 4
T1 construct: host or cells: SH-SY5Y human neuroblastoma cells
Method: The experiment is based on a commercially available ELISA assay evaluating the amount of phosphorylated TrkA (Pandre M K. et al., 2018) and used as indicated in the producer's protocol. The cell culture conditions were described in Marchesi N. et al., 2020.
All the experiments were performed under a laminar flow hood.
The phospho-TrkA (Tyr674/675) protein levels in SH-SY5Y cells were estimated with a specific ELISA kit (Cell Signaling, #7212C.), according to the manufacturer's instructions.
PathScan® Phospho-TrkA (Tyr674/675) Sandwich ELISA Kit is a solid phase sandwich enzyme-linked immunosorbent assay that detects […] levels of Phospho-TrkA (Tyr674/675) protein. A TrkA Mouse mAb #4614 has been coated onto the microwells. After incubation with cell lysates, both phospho- and nonphospho-TrkA proteins are captured by the coated antibody. Following extensive washing to remove any unbound antibody/reagent, Phospho-TrkA (Tyr674/675) Antibody #4610 is added to detect phospho-TrkA protein. Anti-rabbit IgG, HRP-linked Antibody #7074 is then used to recognize the bound detection antibody. HRP substrate, TMB (3,3′,5,5′-tetramethylbenzidine), is added to develop color. The magnitude of optical density is proportional to the quantity of Phospho-TrkA (Tyr674/675) protein.
The color development was stopped and the intensity of the color measured at 450 nm using a Synergy HT microplate reader (BioTek Instruments). The antibodies used in the kit were custom formulations specific for the kit.

[1] = Solubility of the test substances; format: physicochemical
SH-SY5Y cells = format: cell-based; settings: human
Method: Accordingly, two time points were explored: short (90 min) and long (24 hrs). In general, longer times of exposure may sometime influence the chosen response to the test conditions/substances; it is therefore important in the starting exploratory protocols to explore an adequate time interval.
The cellular toxicity was evaluated by measuring the mitochondrial activity through the MTT assay (Marchesi N. et al., 2020).
Mitochondrial enzymatic activity was estimated by MTT [3-(4,5-dimethylthiazol-2-yl)-2,5-diphenyltetrazolium bromide] assay (Sigma-Aldrich). A cell suspension of 2×10^4 cells/mL SH-SY5Y cell line was seeded into 96-well plates.
Following each treatment of 90 minutes and 24 hours, 50 μL of MTT (concentration equal to 2.5 mg/mL) were added to each well. After incubation at 37° C. for 3 hours, the purple formazan crystals were formed. The formed crystals were solubilized in dimethylsulfoxide (DMSO; Sigma-Aldrich). Specifically, after removing the MTT from the wells, 100 μL of DMSO were added in order to lyse the cellular and mitochondrial membranes, and solubilize the formazan crystals. After 10 minutes, absorbance values were measured at 595 nm using a Synergy HT microplate reader (BioTek Instruments) and the results expressed as % with respect to control. […]

[2] = 1 mM, 24 hrs, FIG. 9, Dunnett's test
[3] = 10 mM, 90 min, FIG. 4, Tukey's test
[4] = 10 mM, 24 hrs, FIG. 8, Dunnett's test
[5] = 10 mM, 24 hrs, FIG. 9, Dunnett's test
[6] = SH-SY5Y, read-out: inhibition of TrkA activation by NGF, 10 mM, 24 hrs exposure, FIG. 8
[7] = 24 hrs exposure, no NGF, FIG. 8
[8] = SH-SY5Y, read-out: inhibition of NGF (reduction of the response to NGF)
[9] = SH-SY5Y, read-out: inhibition of TrkA activation by NGF

T1 sequence (P04629 33-796): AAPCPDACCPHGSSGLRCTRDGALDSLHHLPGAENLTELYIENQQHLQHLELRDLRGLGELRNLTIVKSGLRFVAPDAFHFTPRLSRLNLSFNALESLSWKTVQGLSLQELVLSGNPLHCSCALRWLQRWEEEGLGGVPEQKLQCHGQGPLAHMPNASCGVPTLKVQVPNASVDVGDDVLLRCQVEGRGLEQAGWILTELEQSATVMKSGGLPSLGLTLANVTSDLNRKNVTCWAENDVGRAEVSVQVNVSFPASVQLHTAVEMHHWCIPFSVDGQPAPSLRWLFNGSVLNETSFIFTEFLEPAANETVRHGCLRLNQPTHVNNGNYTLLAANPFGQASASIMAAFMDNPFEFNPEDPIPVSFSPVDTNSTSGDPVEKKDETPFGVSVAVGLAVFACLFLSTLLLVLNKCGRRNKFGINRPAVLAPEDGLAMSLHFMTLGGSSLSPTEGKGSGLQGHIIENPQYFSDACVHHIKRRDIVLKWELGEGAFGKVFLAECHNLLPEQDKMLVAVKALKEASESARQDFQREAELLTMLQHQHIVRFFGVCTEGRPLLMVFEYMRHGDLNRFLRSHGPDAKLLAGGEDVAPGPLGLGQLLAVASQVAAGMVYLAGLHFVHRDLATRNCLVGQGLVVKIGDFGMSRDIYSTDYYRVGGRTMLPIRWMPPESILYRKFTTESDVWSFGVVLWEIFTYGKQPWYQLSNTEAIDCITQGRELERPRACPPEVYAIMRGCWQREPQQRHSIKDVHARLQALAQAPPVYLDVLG

In the case of O=C(O)CSCC(=O)NC1CCSC1=O (racemic) [erdosteine, (2-[N-3-(2-oxotetrahydrothienyl)]acetamido)-thioglycolic acid, reference compound], the “Statistically significant (NGF vs. substance + NGF)” value (TrkA receptor; 0.1 mM, 24 h, FIG. 7, Tukey's test) is reported as “No”, the “inhibitory action on TrkA activation by NGF” value (“inhibitory action” for short) (TrkA receptor; 0.1 mM, 24 hrs exposure, FIG. 7) is reported as “ineffective” and the “Statistically significant (NGF vs. substance + NGF)” value (TrkA receptor; 0.5 mM, 24 h, FIG. 7, Tukey's test) is reported as “Yes”. The “inhibitory action” value (TrkA receptor; 0.5 mM, 24 hrs exposure, FIG. 7) was “a trend which is appreciable but not strongly statistically significant”, the “inhibition of TrkA activation by NGF at plateau” value (TrkA receptor; 1 mM and higher (up to 10 mM), 24 hrs exposure, FIG. 7) was “around 40%” and the “Statistically significant (NGF vs. substance + NGF)” value (TrkA receptor; 1 mM, 24 h, FIG. 7, Tukey's test) was “Yes”. For the same compound, the “inhibitory action” value (TrkA receptor; 1.0 mM, 24 hrs exposure, FIG. 7) was “significant inhibitory action”, the “Statistically significant (NGF vs. substance + NGF)” value (TrkA receptor; [2]) was “No” and the “Statistically significant (NGF vs. substance + NGF)” value (TrkA receptor; 5 mM, 24 h, FIG. 7, Tukey's test) was “Yes”. The “Statistically significant (NGF vs. substance + NGF)” value (TrkA receptor; 10 mM, 90', FIG. 6, Tukey's test) was “Yes”, the “Statistically significant (NGF vs. substance + NGF)” value (TrkA receptor; [3]) was “No” and the “Statistically significant (NGF vs. substance + NGF)” value (TrkA receptor; 10 mM, 24 h, FIG. 6, Tukey's test) was “Yes”. For the same compound, the “Statistically significant (NGF vs. substance + NGF)” value (TrkA receptor; 10 mM, 24 h, FIG. 7, Tukey's test) was “Yes”, the “Statistically significant (NGF vs. substance + NGF)” value (TrkA receptor; [4]) was “Yes” and the “Statistically significant (NGF vs. substance + NGF)” value (TrkA receptor; [5]) was “Yes”. The “effect on basal activity in absence of NGF” value (TrkA receptor; 90 min, no NGF) was “do not modify”, the IC50 (TrkA receptor; 24 hrs exposure, FIG. 9) was 500 to 1000 µM and the inhibition at 10000 µM (TrkA receptor; SH-SY5Y, 10 mM, 24 hours exposure, FIG. 6, read-out: inhibition of TrkA phosphorylation) was 42.2%. For the same compound, the inhibition at 10000 µM (TrkA receptor; SH-SY5Y, read-out: inhibition of NGF (reduction of the response to NGF), 10 mM, 90 min pre-exposure, NGF 100 ng/ml, FIG. 4) was 8.2%, the inhibition at 10000 µM (TrkA receptor; SH-SY5Y, read-out: inhibition of TrkA activation by NGF, 10 mM, 90 min exposure, FIG. 6) was 13.9% and the inhibition at 10000 µM (TrkA receptor; [6]) was 36%. For the same compound, the solubility at 20 min ([1]; 37 °C, aqueous buffer, MEM, warming 20 minutes at 37°) was 11 mg/mL (≈ 44.1 mM) and the “decrease in mitochondrial activity” value (SH-SY5Y cells; 90 min, 20 mM) was 16.3%.
With O=C(O)CSCC(=O)N[C@@H]1CCSC1=O [Erdo R] the “inhibition of TrkA activation by NGF” value (TrkA receptor; 10 mM, 24 hrs exposure, FIG. 8) was 30%, the “Statistically significant (NGF vs. substance + NGF)” value (TrkA receptor; [4]) was “Yes” and the “effect on the basal activity” value (TrkA receptor; [7]) was “no effect”.
For O=C(O)CSCC(=O)N[C@H]1CCSC1=O [Erdo S], the “Statistically significant (NGF vs. substance + NGF)” value (TrkA receptor; 1 nM, 24 hrs, FIG. 9, Dunnett's test) was “No”, the “Statistically significant (NGF vs. substance + NGF)” value (TrkA receptor; 100 nM, 24 hrs, FIG. 9, Dunnett's test) was “Yes” and the “effect on TrkA activation by NGF” value (TrkA receptor; 100 nM, 24 hrs, no change up to 10 mM, FIG. 9) was “already maximal”. The “Statistically significant (NGF vs. substance + NGF)” value (TrkA receptor; 1 uM, 24 hrs, FIG. 9, Dunnett's test) was “Yes”, the “Statistically significant (NGF vs. substance + NGF)” value (TrkA receptor; 0.01 mM, 24 hrs, FIG. 9, Dunnett's test) was “Yes” and the “Statistically significant (NGF vs. substance + NGF)” value (TrkA receptor; 0.05 mM, 24 hrs, FIG. 9, Dunnett's test) was “Yes”. The “Statistically significant (NGF vs. substance + NGF)” value (TrkA receptor; 0.1 mM, 24 hrs, FIG. 9, Dunnett's test) was “Yes”, the “Statistically significant (NGF vs. substance + NGF)” value (TrkA receptor; [2]) was “No” and the “Statistically significant (NGF vs. substance + NGF)” value (TrkA receptor; 5 mM, 24 hrs, FIG. 9, Dunnett's test) was “Yes”. For the same compound, the “Statistically significant (NGF vs. substance + NGF)” value (TrkA receptor; [4]) was “Yes”, the “Statistically significant (NGF vs. substance + NGF)” value (TrkA receptor; [5]) was “Yes” and the IC50 (TrkA receptor; 24 hrs exposure, FIG. 9) was 0.001 to 0.1 µM. The “effect on the basal activity” value (TrkA receptor; [7]) was “no effect” and the inhibition at 10000 µM (TrkA receptor; [6]) was 41%.
For O=C(O)CSCC(=O)NC(CCS)C(=O)O (stereo not shown) [Met-1], the “Statistically significant (NGF vs. substance + NGF)” value (TrkA receptor; [3]) was “Yes”, the “Statistically significant (NGF vs. substance + NGF)” value (TrkA receptor; 20 mM, 90 min, FIG. 3, Tukey's test) was “Yes” and the “Statistically significant (NGF vs. substance + NGF)” value (TrkA receptor; 20 mM, 90 min, FIG. 4, Tukey's test) was “Yes”. The “Statistically significant (NGF vs. substance + NGF)” value (TrkA receptor; 40 mM, 90 min, FIG. 3, Tukey's test) was “Yes”, the “effect on basal pTrkA levels (substance alone)” value (TrkA receptor; 20 and 40 mM, 90 min, no NGF, FIG. 3) was “did not alter” and the “effect on basal activity in absence of NGF” value (TrkA receptor; 90 min, no NGF) was “do not modify”. The inhibition at 10000 µM (TrkA receptor; [8]) was 23%, the inhibition at 20000 µM (TrkA receptor; [8]) was 24.5% and the inhibition at 20000 µM (TrkA receptor; [9]) was 34%. The inhibition at 40000 µM (TrkA receptor; [9]) was 52%, the solubility ([1]; water) was 164 mg/mL (≈ 613 mM) and the “decrease of mitochondrial activity” value (SH-SY5Y cells; 24 h, 10 mM) was 17.5%.

From US20260240809A1 (EDMOND PHARMA SRL, priority 2022, published 2026)
